Measured values as given in patent EP4818187A1, “COMPOUND AND USE THEREOF” (Ganzhou Hemay Pharmaceutical, Co., Ltd, priority 2023, dated 2025).

Columns and labels:
Type in all cases: cell-based
[1] = test system: NCI-H1975 (human non-small cell lung cancer); assay: In vitro inhibitory effect against human tumor cells (MTT); settings: NCI-H1975, 72 h, 3 days
[2] = test system: NCI-N87 (human gastric cancer cell); assay: as above; settings: NCI-N87, 72 h, 3 days
[3] = test system: SK-OV-3 (human ovarian cancer); assay: as above; settings: SK-OV-3, 72 h, SK-OV-3, MTT, 3 days
[4] = test system: HCT116 (human colorectal cancer); assay: as above; settings: HCT-116, 72 h, 3 days
[5] = test system: Fadu (human pharyngeal squamous cell carcinoma); assay: as above; settings: 72 h, 3 days
[6] = test system: BxPC-3 (human pancreatic cancer in situ); assay: In vitro inhibitory effect against human tumor cells (MTT or SRB); settings: BXPC-3, 72 h, BxPC-3, test method printed MTT (head: SRB), 3 days
[7] = With addition of βGU (1 µg/well)

For `CC[C@H](C)[C@@H]([C@@H](CC(=O)N1CCC[C@H]1[C@H](OC)[C@@H](C)C(=O)N[C@H](C)[C@@H](OCc1ccc(O[C@@H]2O[C@H](C(=O)[O-])[C@@H](O)[C@H](O)[C@H]2O)cc1OCc1cn(CCCCCC(=O)Nc2ccc(-c3ccc(/N=N/c4ccc5c(S(=O)(=O)[O-])cc(S(=O)(=O)[O-])c(N)c5c4O)c(C)c3)cc2C)nn1)c1ccccc1)OC)N(C)C(=O)[C@@H](NC(=O)[C@H](C(C)C)N(C)C)C(C)C.[Na+].[Na+].[Na+]` [Example compound 2], the IC50 [1, 7] was 4.3 nM, the IC50 ([1]; βGU-free) was 114 nM and the IC50 [2, 7] was 5.6 nM. For the same compound, the IC50 ([2]; βGU-free) was 81 nM, the IC50 [3, 7] was 6.1 nM and the IC50 ([3]; βGU-free) was 211 nM. The IC50 [4, 7] was 6.1 nM, the IC50 ([4]; βGU-free) was 143 nM and the IC50 [5, 7] was 2.7 nM. For the same compound, the IC50 ([5]; βGU-free) was 38 nM, the IC50 [6, 7] was 3.9 nM and the IC50 ([6]; βGU-free) was 43 nM.
